In US20250268884A1, “Deuterated Domperidone for Treating Gastroparesis” (CinDome Pharma, Inc., priority 2022, published 2025):
Like-named read-outs stand apart in the source and are kept apart here.

What was measured:
[1] = test system: heart rate in healthy subjects; experiment: Thorough QT study, placebo-corrected change-from-baseline HR (ΔΔHR); assay type: in vivo, human
[2] = test system: healthy subjects; conditions: in vivo
Description: Categorical T-wave morphology analysis and measurement of PR and QRS intervals were fully performed manually using a semi-automated process in 3 of the 10 ECG replicates at each time point.
Treatment A: 30 mg CIN-102 [representing approximate steady-state therapeutic exposures in subject population]; Treatment B: 100 mg CIN-102 [representing potential steady-state supratherapeutic exposures in subjects]; Treatment C: 400 mg open-label moxifloxacin; Treatment D: CIN-102 placebo. A subject can appear in more than 1 category. The denominator (Total) is defined as the number of subjects or time points in the QT/QTc population for each treatment.

[3] = for AUC% extrap / CL/F / RAUC / RCmax / λz: Day 14 (steady state), mean
Description: The following PK parameters were calculated for deuterated domperidone from plasma concentrations (Day 1) using a noncompartmental method, if the data permitted: • Cmax determined directly from the concentration-time profile.
[formula] • λz calculated from a semi-logarithmic plot of the plasma concentration versus time curve. The parameter was calculated by linear least-squares regression analysis using points in the terminal logarithmic-linear phase; • T½ calculated as natural logarithm (2)/λz; • CL/F calculated as Dose/AUC0-∞; • Vz/F calculated as Dose/(λz×AUC0-∞); • Rcmax calculated as Cmax on Day 14/Cmax on Day 1; and • RAUC calculated as AUCtau on Day 14/AUCtau on Day 1.

[4] = test system: adults with idiopathic or diabetic gastroparesis; conditions: in vivo
Description: Safety was evaluated through assessments of Aes, vital signs, physical examinations, clinical laboratory evaluations (including prolactin), and ECG findings. Additionally, a single, optional PGx blood sample may have been collected at any time during the subject's participation in the study.
Safety variables included Aes, clinical laboratory results (including prolactin), vital signs, ECGs, and physical examination findings.

[5] = test system: adults with idiopathic or diabetic gastroparesis; experiment: Clinical Grading Assessment Scale / CPGAS, Day 14, Phase 2a; assay type: in vivo, human; conditions: Day 14, ITT; for CPGAS score, investigator, mean (SD) / CPGAS score, subject, mean (SD): scale +7 to −7
Description: For assessment of global clinical response, the following question was utilized at Day 14: “In thinking about the last 2 weeks, how would you say your stomach/gastroparesis-related problems/symptoms have been compared to the period before you started treatment on this study?” Responses were the following: improved, no change, or worsened. Subjects were asked to quantify their therapeutic response using the Clinical Patient Grading Assessment Scale. Subjects picked a number over a range (+7=completely better; 0=no change; −7=very much worse) that best answered the question.

[2H]c1c([2H])c([2H])c2c([nH]c(=O)n2CCCN2CCC(n3c(=O)[nH]c4cc(Cl)ccc43)CC2)c1[2H] [Deudomperidone, 1-{3-[4-(5-chloro-2-oxo-2,3-dihydro-1H-1,3-benzodiazol-1-yl)piperidin-1yl]propyl}-2,3-dihydro(4,5,6,7-D4)-1H-1,3-benzodiazol-2-one]
bradycardic outliers ([1]; 30 mg treatment group, at 5 time points): 1
ΔΔHR LS Mean ([1]; 0.5 H Post Dose, 30 mg CIN-102 (Treatment A)): −0.5 bpm
ΔΔHR LS Mean ([1]; 0.5 H Post Dose, 100 mg CIN-102 (Treatment B)): −0.5 bpm
ΔΔHR LS Mean ([1]; 1 H Post Dose, 30 mg CIN-102 (Treatment A)): −1.4 bpm
ΔΔHR LS Mean ([1]; 1 H Post Dose, 100 mg CIN-102 (Treatment B)): −1.1 bpm
ΔΔHR LS Mean ([1]; 1.5 H Post Dose, 30 mg CIN-102 (Treatment A)): −1.0 bpm
ΔΔHR LS Mean ([1]; 1.5 H Post Dose, 100 mg CIN-102 (Treatment B)): −0.7 bpm
ΔΔHR LS Mean ([1]; 2 H Post Dose, 30 mg CIN-102 (Treatment A)): 0.4 bpm
ΔΔHR LS Mean ([1]; 2 H Post Dose, 100 mg CIN-102 (Treatment B)): 0.2 bpm
ΔΔHR LS Mean ([1]; 2.5 H Post Dose, 30 mg CIN-102 (Treatment A)): −0.7 bpm
ΔΔHR LS Mean ([1]; 2.5 H Post Dose, 100 mg CIN-102 (Treatment B)): −0.8 bpm
ΔΔHR LS Mean ([1]; 3 H Post Dose, 30 mg CIN-102 (Treatment A)): −1.4 bpm
ΔΔHR LS Mean ([1]; 3 H Post Dose, 100 mg CIN-102 (Treatment B)): −1.0 bpm
ΔΔHR LS Mean ([1]; 4 H Post Dose, 30 mg CIN-102 (Treatment A)): 0.0 bpm
ΔΔHR LS Mean ([1]; 4 H Post Dose, 100 mg CIN-102 (Treatment B)): 0.1 bpm
ΔΔHR LS Mean ([1]; 5 H Post Dose, 30 mg CIN-102 (Treatment A)): −0.3 bpm
ΔΔHR LS Mean ([1]; 5 H Post Dose, 100 mg CIN-102 (Treatment B)): −0.8 bpm
ΔΔHR LS Mean ([1]; 6 H Post Dose, 30 mg CIN-102 (Treatment A)): −0.2 bpm
ΔΔHR LS Mean ([1]; 6 H Post Dose, 100 mg CIN-102 (Treatment B)): −0.5 bpm
ΔΔHR LS Mean ([1]; 8 H Post Dose, 30 mg CIN-102 (Treatment A)): 0.7 bpm
ΔΔHR LS Mean ([1]; 8 H Post Dose, 100 mg CIN-102 (Treatment B)): −0.9 bpm
ΔΔHR LS Mean ([1]; 12 H Post Dose, 30 mg CIN-102 (Treatment A)): −0.5 bpm
ΔΔHR LS Mean ([1]; 12 H Post Dose, 100 mg CIN-102 (Treatment B)): −0.8 bpm
ΔΔHR LS Mean ([1]; 24 H Post Dose, 30 mg CIN-102 (Treatment A)): 1.1 bpm
ΔΔHR LS Mean ([1]; 24 H Post Dose, 100 mg CIN-102 (Treatment B)): 0.1 bpm
ΔΔHR LS Mean ([1]; 36 H Post Dose, 30 mg CIN-102 (Treatment A)): 0.5 bpm
ΔΔHR LS Mean ([1]; 36 H Post Dose, 100 mg CIN-102 (Treatment B)): −0.4 bpm
ΔΔHR LS Mean ([1]; 48 H Post Dose, 30 mg CIN-102 (Treatment A)): 0.9 bpm
ΔΔHR LS Mean ([1]; 48 H Post Dose, 100 mg CIN-102 (Treatment B)): 0.5 bpm
tachycardic outliers ([1]; across treatment periods): no tachycardic outliers
mean ΔΔHR, by-time point analysis ([1]; both dose levels, all post-dose time points): below 10 bpm
PR or QRS outliers [2]: no PR or QRS outliers
treatment-emergent U waves [2]: no treatment-emergent U waves
AUC% extrap ([3]; 5 mg BID): 11.72%
CL/F ([3]; 5 mg BID): 48.394 L/h
RAUC ([3]; 5 mg BID): 1.653
RCmax ([3]; 5 mg BID): 1.838
λz ([3]; 5 mg BID): 0.0413 h⁻¹
AUC% extrap ([3]; 10 mg BID): 9.31%
CL/F ([3]; 10 mg BID): 69.640 L/h
RAUC ([3]; 10 mg BID): 2.430
RCmax ([3]; 10 mg BID): 2.179
λz ([3]; 10 mg BID): 0.0454 h⁻¹
AUC% extrap ([3]; 20 mg QD): 8.48%
CL/F ([3]; 20 mg QD): 55.317 L/h
RAUC ([3]; 20 mg QD): 2.011
RCmax ([3]; 20 mg QD): 2.620
λz ([3]; 20 mg QD): 0.0454 h⁻¹
exposure (Cmax and AUC) in patients with gastroparesis compared to that expected from healthy subjects ([3]; given dose level): approximately 2 fold
tolerability of multiple doses [4]: generally well tolerated
Clinical Grading Assessment Scale, investigator response: Improved ([5]; 5 mg BID, N′ = 9): 6 (66.7) n (%)
Clinical Grading Assessment Scale, investigator response: No change ([5]; 5 mg BID, N′ = 9): 3 (33.3) n (%)
Clinical Grading Assessment Scale, investigator response: Worsened ([5]; 5 mg BID, N′ = 9): 0 (0.0) n (%)
Clinical Grading Assessment Scale, subject response: Improved ([5]; 5 mg BID, N′ = 9): 5 (55.6) n (%)
Clinical Grading Assessment Scale, subject response: No change ([5]; 5 mg BID, N′ = 9): 4 (44.4) n (%)
Clinical Grading Assessment Scale, subject response: Worsened ([5]; 5 mg BID, N′ = 9): 0 (0.0) n (%)
CPGAS score, investigator, mean (SD) ([5]; 5 mg BID): 2.2 (2.05)
CPGAS score, subject, mean (SD) ([5]; 5 mg BID): 2.1 (2.26)
Clinical Grading Assessment Scale, subject response: Improved ([5]; 10 mg BID, N′ = 23): 17 (73.9) n (%)
Clinical Grading Assessment Scale, subject response: No change ([5]; 10 mg BID, N′ = 23): 5 (21.7) n (%)
Clinical Grading Assessment Scale, subject response: Worsened ([5]; 10 mg BID, N′ = 23): 1 (4.3) n (%)
Clinical Grading Assessment Scale, investigator response: Improved ([5]; 10 mg BID, N′ = 30): 22 (73.3) n (%)
Clinical Grading Assessment Scale, investigator response: No change ([5]; 10 mg BID, N′ = 30): 8 (26.7) n (%)
Clinical Grading Assessment Scale, investigator response: Worsened ([5]; 10 mg BID, N′ = 30): 0 (0.0) n (%)
CPGAS score, investigator, mean (SD) ([5]; 10 mg BID): 2.5 (1.98)
CPGAS score, subject, mean (SD) ([5]; 10 mg BID): 3.0 (2.70)
Clinical Grading Assessment Scale, subject response: Improved ([5]; 20 mg QD, N′ = 14): 9 (64.3) n (%)
Clinical Grading Assessment Scale, subject response: No change ([5]; 20 mg QD, N′ = 14): 5 (35.7) n (%)
Clinical Grading Assessment Scale, subject response: Worsened ([5]; 20 mg QD, N′ = 14): 0 (0.0) n (%)
Clinical Grading Assessment Scale, investigator response: Improved ([5]; 20 mg QD, N′ = 15): 11 (73.3) n (%)
Clinical Grading Assessment Scale, investigator response: No change ([5]; 20 mg QD, N′ = 15): 4 (26.7) n (%)
Clinical Grading Assessment Scale, investigator response: Worsened ([5]; 20 mg QD, N′ = 15): 0 (0.0) n (%)
CPGAS score, investigator, mean (SD) ([5]; 20 mg QD): 2.9 (2.26)
CPGAS score, subject, mean (SD) ([5]; 20 mg QD): 2.9 (2.62)
